These compounds were tested against SRPK1 (Homo sapiens, UniProt Q96SB4) (assay: SRPK1 assay, Method 1 (ADP-Glo luminescence)). Conditions: Method 1 (no asterisk): substrate Human SRSF1/SF2, 25° C. for 90 min, test compounds 30 μM top, 3-fold, duplicate.
Type: biochemical
Experimental: The SPRK1 assay was performed as follows:
Method 1: The assay buffer was prepared. The reference compound was diluted to 10 mM. The test compounds were prepared at a concentration of 30 mM. Fifteen nL of compounds/DMSO were transferred to a multi-well plate. Then, 7.5 ul enzyme SRPK1 was added to each well, the plate was spun down at 1000 rpm and centrifuged for 30 sec. Then, 7.5 ul substrate Human SRSF1/SF2 was added to each well, the plate spun down at 1000 rpm and centrifuged for 30 sec. The plate was then incubated at 25° C. for 90 min. After 90 min, 5 μl of ADP-Glo™ Reagent was added to each well and the plate incubated at room temperature for 60 minutes. Then, 10 μl of Kinase Detection Reagent was added to each well and the plate incubate at room temperature for 60 minutes. The luminescence of each well was recorded on Envision. The test compounds were at 30 μM top, 3-fold, in duplicate, and the final concentration of DMSO was 0.1%.
All assays were performed using Method 1, except where indicated with an asterisk (*) in the below table, indicating Method 2 was used.

SRPK1, sequence (Q96SB4 whole entry): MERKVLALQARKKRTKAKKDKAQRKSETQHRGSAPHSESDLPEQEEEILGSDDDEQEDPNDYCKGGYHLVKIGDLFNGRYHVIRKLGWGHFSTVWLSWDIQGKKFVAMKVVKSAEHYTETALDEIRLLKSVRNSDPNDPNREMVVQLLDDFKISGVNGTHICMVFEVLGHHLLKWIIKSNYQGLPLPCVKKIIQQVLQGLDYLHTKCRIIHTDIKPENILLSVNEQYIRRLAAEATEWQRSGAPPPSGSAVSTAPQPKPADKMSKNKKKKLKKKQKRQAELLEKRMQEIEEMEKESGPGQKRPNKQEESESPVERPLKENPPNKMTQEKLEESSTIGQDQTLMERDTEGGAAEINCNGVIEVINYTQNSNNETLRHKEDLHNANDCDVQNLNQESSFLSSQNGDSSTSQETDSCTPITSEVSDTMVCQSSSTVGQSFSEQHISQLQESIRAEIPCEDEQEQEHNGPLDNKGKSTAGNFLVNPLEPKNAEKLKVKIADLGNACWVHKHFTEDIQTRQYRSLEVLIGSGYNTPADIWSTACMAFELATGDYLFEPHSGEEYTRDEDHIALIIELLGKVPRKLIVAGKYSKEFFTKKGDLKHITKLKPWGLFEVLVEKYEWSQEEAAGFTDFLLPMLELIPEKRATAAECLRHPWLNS

| SMILES | IC50 [nM] |
| --- | --- |
| O=C(Nc1cc(C(F)(F)F)cnc1N1CCC(F)(F)CC1)c1ccc(-c2ccncc2)o1 [Compound 070] | 4640 |
| CN1CCC(c2ncc(C(F)(F)F)cc2NC(=O)c2ccc(C3CCOCC3)o2)CC1 [Compound 071, N-(2-(1-methylpiperidin-4-yl)-5-(trifluoromethyl)pyridin-3-yl)-5-(tetrahydro-2H-pyran-4-yl) furan-2-carboxamide] | 6870 |
| O=C(Nc1cc(C(F)(F)F)cnc1N1CCCC(O)C1)c1ccc(C2CCOCC2)o1 (stereo not shown) [Compound 072] | 754 |
| O=C(Nc1cc(C(F)(F)F)cnc1N1CCC2(CCNC2=O)CC1)c1ccc(C2CCOCC2)o1 [Compound 073] | 59.3 |
| O=C(Nc1cc(C(F)(F)F)cnc1N1CCC(O)CC1)c1ccc(-c2cnccn2)o1 [Compound 074, N-(2-(4-hydroxypiperidin-1-yl)-5-(trifluoromethyl)pyridin-3-yl)-5-(pyrazin-2-yl) furan-2-carboxamide] | 641 |
| C[C@H]1C[C@@H](O)CCN1c1ncc(C(F)(F)F)cc1NC(=O)c1ccc(C2CCOCC2)o1 [Compound 075] | 13.1 |
| C[C@H]1C[C@H](O)CCN1c1ncc(C(F)(F)F)cc1NC(=O)c1ccc(C2CCOCC2)o1 [Compound 076] | 14.2 |
| O=C(Nc1cc(C(F)(F)F)cnc1N1CCC(O)CC1)c1ccc(C(F)(F)F)cn1 [Compound 077] | > 30000 |
| O=C(Nc1cc(C(F)(F)F)cnc1N1CCc2n[nH]cc2C1)c1ccc(C2CCOCC2)o1 [Compound 078] | 27.9 |
| O=C1CCC2(CCN(c3ncc(C(F)(F)F)cc3NC(=O)c3ccc(C4CCOCC4)o3)CC2)N1 [Compound 081] | 215 |
| O=C(Nc1cc(C(F)(F)F)cnc1N1CCC2(CCOC2=O)CC1)c1ccc(C2CCOCC2)o1 [Compound 082] | 55.5 |
| O=C(Nc1cc(C(F)(F)F)cnc1N1CCC(CO)CC1)c1ccc(C2CCOCC2)o1 [Compound 083] | 39.8 |
| O=C(Nc1cc(C(F)(F)F)cnc1N1CCC(O)CC1)c1ccc(-c2cc[nH]n2)o1 [Compound 084] | 60.7 |
| CC(=O)N1CCN(c2ncc(C(F)(F)F)cc2NC(=O)c2ccc(C3CCOCC3)o2)CC1 [Compound 085] | 2050 |
| O=C(Nc1cc(C(F)(F)F)cnc1N1CCC(O)CC1)c1cccc(Cl)n1 [Compound 087] | 249 |
| NC(=O)C1CCN(c2ncc(C(F)(F)F)cc2NC(=O)c2ccc(C3CCOCC3)o2)CC1 [Compound 088] | 71.7 |
| O=C(Nc1cc(C(F)(F)F)cnc1N1CCC(O)CC1)c1ccc(F)cn1 [Compound 089] | 878 |
| COc1ccc(C(=O)Nc2cc(C(F)(F)F)cnc2N2CCC(O)CC2)nc1 [Compound 090] | 1380 |

| SMILES | IC50 [nM] |
| --- | --- |
| O=C(Nc1cc(C(F)(F)F)cnc1N1CCC(O)CC1)c1cc(Cl)ccn1 [Compound 091] | > 30000 |
| O=C(Nc1cc(C(F)(F)F)cnc1N1CCC(O)CC1)c1ccc(Cl)cn1 [Compound 093] | 1260 |
| O=C(Nc1cc(C(F)(F)F)cnc1N1CCC(O)CC1)c1cc(-c2cn[nH]c2)ccn1 [Compound 094, N-[2-(4-hydroxy-1-piperidyl)-5-(trifluoromethyl)-3-pyridyl]-4-(1H-pyrazol-4-yl)pyridine-2-carboxamide] | > 30000 |
| NC(=O)C1(O)CCN(c2ncc(C(F)(F)F)cc2NC(=O)c2ccc(C3CCOCC3)o2)CC1 [Compound 096, 4-hydroxy-1-[3-[(5-tetrahydropyran-4-ylfuran-2-carbonyl)amino]-5-(trifluoromethyl)-2-pyridyl]piperidine-4-carboxamide] | 18.3 |
| O=C(O)c1ccc(C(=O)Nc2cc(C(F)(F)F)cnc2N2CCC(O)CC2)o1 [Compound 098] | 871 |
| O=C(Nc1cc(C(F)(F)F)cnc1N1CCC(O)CC1)c1cccc(-c2cn[nH]c2)n1 [Compound 100] | 59.7 |
| O=C(Nc1cc(C(F)(F)F)cnc1N1CCC(O)CC1)c1cnn(C2CCOCC2)c1 [Compound 101] | > 30000 |
| O=C1C=C(c2ccc(C(=O)Nc3cc(C(F)(F)F)cnc3N3CCC(O)CC3)o2)CCO1 [Compound 102] | 340 |
| O=C(Nc1cc(C(F)(F)F)cnc1N1CCC(O)CC1)c1ccn(C2CCOCC2)n1 [Compound 103] | 136 |
| O=C(Nc1cc(C(F)(F)F)cnc1N1CCC(O)CC1)c1ccc(-c2c[nH]cn2)o1 [Compound 104] | 556 |
| O=C(Nc1cc(C(F)(F)F)cnc1N1CCC(O)CC1)c1ccc(-c2nc[nH]n2)o1 [Compound 105] | 1530 |
| Nc1n[nH]cc1-c1ccc(C(=O)Nc2cc(C(F)(F)F)cnc2N2CCC(O)CC2)o1 [Compound 106, 5-(3-amino-1H-pyrazol-4-yl)-N-[2-(4-hydroxy-1-piperidyl)-5-(trifluoromethyl)-3-pyridyl]furan-2-carboxamide] | 142 |
| C[C@@H]1C[C@@H](O)CCN1c1ncc(C(F)(F)F)cc1NC(=O)c1ccc(Br)o1 [Compound 107, 5-bromo-N-[2-[(2R,4S)-4-hydroxy-2-methyl-1-piperidyl]-5-(trifluoromethyl)-3-pyridyl]furan-2-carboxamide] | 746 |
| O=C(Nc1cc(C(F)(F)F)cnc1N1CCC(O)CC1)c1ccc(-c2cn[nH]n2)o1 [Compound 108] | 14.8 |
| C[C@@H]1C[C@H](O)CCN1c1ncc(C(F)(F)F)cc1NC(=O)c1ccc(Br)o1 [Compound 109] | 746 |
| C[C@@H]1C[C@H](O)CCN1c1ncc(C(F)(F)F)cc1NC(=O)c1ccc(-c2cn[nH]c2)o1 [Compound 110] | 16.1 |
| C[C@@H]1C[C@H](O)CCN1c1ncc(C(F)(F)F)cc1NC(=O)c1ccc(-c2ccnc(N)c2)o1 [Compound 111] | 39.4 |

Continued, values first:

| IC50 [nM] | SMILES |
| --- | --- |
| > 30000 | C[C@@H]1C[C@@H](O)CCN1c1ncc(C(F)(F)F)cc1NC(=O)c1ccc(-c2cn[nH]c2)o1 [Compound 113] |
| > 30000 | C[C@@H]1C[C@@H](O)CCN1c1ncc(C(F)(F)F)cc1NC(=O)c1ccc(-c2ccnc(N)c2)o1 [Compound 114] |
| > 30000 | O=C(Nc1cc(C(F)(F)F)cnc1N1CCc2[nH]ncc2C1)c1ccc(Br)o1 [Compound 115] |
| > 30000 | C[C@@H]1C[C@@H](O)CCN1c1ncc(C2CC2)cc1NC(=O)c1ccc(Br)o1 [Compound 116] |
| > 30000 | C#Cc1ccc(C(=O)Nc2cc(C(F)(F)F)cnc2N2CCC(O)CC2)o1 [Compound 117] |
| > 30000 | C[C@@H]1C[C@@H](O)CCN1c1ncc(C2CC2)cc1NC(=O)c1ccc(-c2ccnc(N)c2)o1 [Compound 119] |
| > 30000 | O=C(Nc1cc(C2CC2)cnc1N1CCc2[nH]ncc2C1)c1ccc(Br)o1 [Compound 120] |
| > 30000 | O=C(Nc1cc(C2CC2)cnc1N1CCc2[nH]ncc2C1)c1ccc(-c2cn[nH]c2)o1 [Compound 121] |
| > 30000 | Nc1cc(-c2ccc(C(=O)Nc3cc(C4CC4)cnc3N3CCc4[nH]ncc4C3)o2)ccn1 [Compound 122] |
| > 30000 | O=C(Nc1cc(C(F)(F)F)cnc1N1CCc2[nH]ncc2C1)c1ccc(-c2cn[nH]c2)o1 [Compound 123] |
| > 30000 | Nc1cc(-c2ccc(C(=O)Nc3cc(C(F)(F)F)cnc3N3CCc4[nH]ncc4C3)o2)ccn1 [Compound 124] |
| > 30000 | O=C(Nc1cc(C2CC2)cnc1N1CCC(O)CC1)c1ccc(-c2cn[nH]c2)cn1 [Compound 125] |
| > 30000 | C[C@@H]1C[C@H](O)CCN1c1ncc(C2CC2)cc1NC(=O)c1ccc(Br)o1 [Compound 126] |
| > 30000 | C[C@@H]1C[C@H](O)CCN1c1ncc(C2CC2)cc1NC(=O)c1ccc(-c2cn[nH]c2)o1 [Compound 127] |
| > 30000 | C[C@@H]1C[C@H](O)CCN1c1ncc(C2CC2)cc1NC(=O)c1ccc(-c2ccnc(N)c2)o1 [Compound 128] |
| > 30000 | O=C(Nc1cc(C(F)(F)F)cnc1N1CCC(O)CC1)c1ccc(-c2cn[nH]c2)cc1 [Compound 129] |
| > 30000 | Nc1cc(-c2ccc(C(=O)Nc3cc(C(F)(F)F)cnc3N3CCc4[nH]ncc4C3)o2)cc(N)n1 [Compound 130] |
| > 30000 | Nc1cc(-c2ccc(C(=O)Nc3cc(C4CC4)cnc3N3CCc4[nH]ncc4C3)o2)cc(N)n1 [Compound 131] |
| > 30000 | C[C@@H]1C[C@@H](O)CCN1c1ncc(C(F)(F)F)cc1NC(=O)c1ccc(-c2cc(N)nc(N)c2)o1 [Compound 132] |
| > 30000 | C[C@@H]1C[C@H](O)CCN1c1ncc(C(F)(F)F)cc1NC(=O)c1ccc(-c2cc(N)nc(N)c2)o1 [Compound 133] |
| > 30000 | C[C@@H]1C[C@@H](O)CCN1c1ncc(C2CC2)cc1NC(=O)c1ccc(-c2cc(N)nc(N)c2)o1 [Compound 134] |
| 36 | CC1(O)CCN(c2ncc(C3CC3)cc2NC(=O)c2ccc(-c3ccncc3)o2)CC1 [Compound 136, N-(5-cyclopropyl-2-(4-hydroxy-4-methylpiperidin-1-yl)pyridin-3-yl)-5-(pyridin-4-yl) furan-2-carboxamide] |
| 210 | CC1(O)CCN(c2ncc(C3CC3)cc2NC(=O)c2ccc(C3CCOCC3)o2)CC1 [Compound 137, N-(5-Cyclopropyl-2-(4-hydroxy-4-methylpiperidin-1-yl)pyridin-3-yl)-5-(tetrahydro-2H-pyran-4-yl) furan-2-carboxamide] |

— patent US20260217693A1, “SRPK1 INHIBITORS AND METHODS OF USE” (ALLIANTHERA (SUZHOU) BIOPHARMACEUTICAL CO., LTD., priority 2023, published 2026)
